Measurements as given in US20260297060A1, “COMPOUNDS FOR THE DEGRADATION OF MUTANT BRAF” (C4 THERAPEUTICS, INC., priority 2023, published 2026).

How the values were obtained:
[1] = target: T1, human bile salt export pump (BSEP) efflux transporter (Homo sapiens, UniProt O95342); assay: BSEP Vesicular Transport Inhibition Assay (IC50 determination); assay type: biochemical; details: human BSEP (HEK293) vesicles, taurocholate 0.2 μM, 4 mM Mg-ATP, 10 concentrations, 1 replicate
T1 construct: purchased SOLVO Biotechnology Charles River Laboratories, Szeged, Hungary; host or cells: HEK293 (inside out membrane vesicles)
T1 sequence (O95342 whole entry): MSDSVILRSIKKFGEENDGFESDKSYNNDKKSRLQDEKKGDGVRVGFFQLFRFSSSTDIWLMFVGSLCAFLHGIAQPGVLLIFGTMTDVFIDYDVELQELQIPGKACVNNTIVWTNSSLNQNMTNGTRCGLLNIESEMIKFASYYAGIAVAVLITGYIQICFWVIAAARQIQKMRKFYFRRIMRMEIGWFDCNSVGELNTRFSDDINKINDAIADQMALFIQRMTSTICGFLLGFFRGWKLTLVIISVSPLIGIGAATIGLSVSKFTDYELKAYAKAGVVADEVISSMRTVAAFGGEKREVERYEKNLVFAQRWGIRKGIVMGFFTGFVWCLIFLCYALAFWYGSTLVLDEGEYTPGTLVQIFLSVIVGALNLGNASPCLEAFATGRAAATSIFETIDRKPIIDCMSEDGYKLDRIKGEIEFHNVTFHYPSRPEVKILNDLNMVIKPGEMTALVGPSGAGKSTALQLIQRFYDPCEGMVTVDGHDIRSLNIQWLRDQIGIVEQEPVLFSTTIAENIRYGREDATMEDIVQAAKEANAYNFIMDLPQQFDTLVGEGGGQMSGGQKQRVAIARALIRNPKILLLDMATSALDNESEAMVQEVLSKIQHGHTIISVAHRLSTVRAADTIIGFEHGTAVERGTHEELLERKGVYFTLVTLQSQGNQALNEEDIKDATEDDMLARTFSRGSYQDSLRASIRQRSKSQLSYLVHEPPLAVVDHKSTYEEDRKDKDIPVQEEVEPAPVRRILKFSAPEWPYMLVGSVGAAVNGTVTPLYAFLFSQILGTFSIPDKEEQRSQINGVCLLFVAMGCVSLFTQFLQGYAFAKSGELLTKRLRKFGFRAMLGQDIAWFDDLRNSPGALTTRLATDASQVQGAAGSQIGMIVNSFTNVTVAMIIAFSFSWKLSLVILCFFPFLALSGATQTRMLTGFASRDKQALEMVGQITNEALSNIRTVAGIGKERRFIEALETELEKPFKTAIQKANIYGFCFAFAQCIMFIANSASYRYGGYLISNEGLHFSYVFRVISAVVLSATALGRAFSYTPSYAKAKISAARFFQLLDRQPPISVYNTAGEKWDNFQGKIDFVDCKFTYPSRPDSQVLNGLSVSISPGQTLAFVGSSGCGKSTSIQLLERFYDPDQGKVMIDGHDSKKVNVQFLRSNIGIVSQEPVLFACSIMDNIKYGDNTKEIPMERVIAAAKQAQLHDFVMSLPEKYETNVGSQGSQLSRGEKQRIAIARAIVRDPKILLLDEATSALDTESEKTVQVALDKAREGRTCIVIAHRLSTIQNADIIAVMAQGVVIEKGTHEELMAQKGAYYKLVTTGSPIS
How it was run: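 Inside-out membrane vesicles from HEK293 cells expressing human BSEP were incubated with taurocholate probe substrate and compound (10 concentrations, single replicate) with 4 mM Mg-ATP, or 4 mM AMP for background, for 5 min at 37 °C. Vesicle-trapped substrate was quantified by liquid scintillation counting after filtration.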

A375-NRAS^Q61K cells = assay: CTGlo Cell Viability Assay, A375-NRAS^Q61K (A375.11) cells, 96 hours; assay type: cell-based, human; details: Homo sapiens, 96 h, A375.11 (A375-NRAS^Q61K) cells; for Emax: lowest % viability achieved
How it was run: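 Viability as CellTiter-Glo ATP luminescence after 96 h compound exposure at 37 °C; A375.11 (BRAF V600E/NRAS Q61K) cells at 250/well, top final concentration 10 μM in half-log steps. Signal was background-corrected and set relative to DMSO controls. A 4-parameter logistic fit gave GI50 (50% crossing) and Emax.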

Compound	GI50 (A375-NRAS^Q61K cells) [µM]	BSEP Inhibition/IC50 [1] [µM]	Emax (A375-NRAS^Q61K cells) [%]	BSEP Inhibition/IC50 ([1]; in nM)
Cn1nc(N2CCC(=O)NC2=O)c2cc(F)c(N3CC4(CC(N5CCC6(CC5)C[C@@H](n5cnc7ccc(Oc8c(F)ccc(NS(=O)(=O)N9CC%10(CCC%10)C9)c8C#N)cc7c5=O)CO6)C4)C3)cc21 [Compound 254, N-[2-cyano-3-[3-[(3R)-8-[2-[3-(2,4-dioxohexahydropyrimidin-1-yl)-5-fluoro-1-methyl-indazol-6-yl]-2-azaspiro[3.3]heptan-6-yl]-1-oxa-8-azaspiro[4.5]decan-3-yl]-4-oxo-quinazolin-6-yl]oxy-4-fluoro-phenyl]-2-azaspiro[3.3]heptane-2-sulfonamide]	< 1	1.74	< 50	
Cn1nc(N2CCC(=O)NC2=O)c2cc(F)c(N3CC4(CC(N5CCC6(CC5)CC(n5cnc7ccc(Oc8c(F)ccc(NS(=O)(=O)C9CCC9)c8C#N)cc7c5=O)C6)C4)C3)cc21 [Compound 259, N-[2-cyano-3-[3-[7-[2-[3-(2,4-dioxohexahydropyrimidin-1-yl)-5-fluoro-1-methyl-indazol-6-yl]-2-azaspiro[3.3]heptan-6-yl]-7-azaspiro[3.5]nonan-2-yl]-4-oxo-quinazolin-6-yl]oxy-4-fluoro-phenyl]cyclobutanesulfonamide]	< 1		< 50	12760
Cn1nc(N2CCC(=O)NC2=O)c2cc(F)c(N3CC4(CC(N5CCC6(CC5)CC(n5cnc7ccc(Oc8c(F)ccc(NS(=O)(=O)C9CC9)c8C#N)cc7c5=O)C6)C4)C3)cc21 [Compound 260, N-[2-cyano-3-[3-[7-[2-[3-(2,4-dioxohexahydropyrimidin-1-yl)-5-fluoro-1-methyl-indazol-6-yl]-2-azaspiro[3.3]heptan-6-yl]-7-azaspiro[3.5]nonan-2-yl]-4-oxo-quinazolin-6-yl]oxy-4-fluoro-phenyl]cyclopropanesulfonamide]	< 1		50 to 90	12720
Cn1nc(N2CCC(=O)NC2=O)c2cc(F)c(N3CC4(CC(N5CCC6(CC5)CC(n5cnc7ccc(Oc8c(F)ccc(NS(=O)(=O)N9CC[C@@H](F)C9)c8C#N)cc7c5=O)C6)C4)C3)cc21 [Compound 261, (3R)-N-[2-cyano-3-[3-[7-[2-[3-(2,4-dioxohexahydropyrimidin-1-yl)-5-fluoro-1-methyl-indazol-6-yl]-2-azaspiro[3.3]heptan-6-yl]-7-azaspiro[3.5]nonan-2-yl]-4-oxo-quinazolin-6-yl]oxy-4-fluoro-phenyl]-3-fluoro-pyrrolidine-1-sulfonamide]	< 1		< 50	>40000

Now from value to compound, other results behind:

GI50 (A375-NRAS^Q61K cells) [µM]	Compound	BSEP Inhibition/IC50 [1] [µM]	Emax (A375-NRAS^Q61K cells) [%]	BSEP Inhibition/IC50 ([1]; in nM)
< 1	CC(C)S(=O)(=O)Nc1ccc(F)c(Oc2ccc3ncn(C4CC5(CCN(C6CC7(C6)CN(c6cc8c(cc6F)c(N6CCC(=O)NC6=O)nn8C)C7)CC5)C4)c(=O)c3c2)c1C#N (stereo not drawn) [Compound 273, N-[2-cyano-3-[3-[7-[2-[3-(2,4-dioxohexahydropyrimidin-1-yl)-5-fluoro-1-methyl-indazol-6-yl]-2-azaspiro[3.3]heptan-6-yl]-7-azaspiro[3.5]nonan-2-yl]-4-oxo-quinazolin-6-yl]oxy-4-fluoro-phenyl]propane-2-sulfonamide]		< 50	20580
< 1	Cn1nc(N2CCC(=O)NC2=O)c2cc(F)c(N3CC4(CC(N5CCC6(CC5)CC(n5cnc7ccc(Oc8c(F)ccc(NS(=O)(=O)N9C[C@H]%10C[C@H]%10C9)c8C#N)cc7c5=O)C6)C4)C3)cc21 (stereo partly drawn) [Compound 277, (1R,5S)-N-[2-cyano-3-[3-[7-[2-[3-(2,4-dioxohexahydropyrimidin-1-yl)-5-fluoro-1-methyl-indazol-6-yl]-2-azaspiro[3.3]heptan-6-yl]-7-azaspiro[3.5]nonan-2-yl]-4-oxo-quinazolin-6-yl]oxy-4-fluoro-phenyl]-3-azabicyclo[3.1.0]hexane-3-sulfonamide]		50 to 90	11860
